What was measured:
TDE1909 (CdaA) = TDE1909 (CdaA) (Treponema denticola, UniProt Q73LF5); assay type: biochemical; conditions: 150 µM ATP, 5 µM enzyme, 10 mM MnCl2, pH 7.5, 37 °C, 1-4 hr
TDE0027 (DhhA) = TDE0027 (DhhA) (Treponema denticola, UniProt Q73RQ8); experiment: absorbance at […] nm; assay type: biochemical; conditions: MnCl2 buffer, 30 min
TDE0087 (TrkA) = molecular target: T1, TDE0087 (TrkA) (Treponema denticola, UniProt Q73RK1); experiment: ELISA-type plate binding, immobilised protein, streptavidin-HRP; conditions: labelled compound (biotinylated c-di-AMP, 125 nM); 50 mM Tris-HCl pH 8.0, 750 mM KCl, 2.5 mM EDTA, 2 hr
T1 sequence (Q73RK1 1-466): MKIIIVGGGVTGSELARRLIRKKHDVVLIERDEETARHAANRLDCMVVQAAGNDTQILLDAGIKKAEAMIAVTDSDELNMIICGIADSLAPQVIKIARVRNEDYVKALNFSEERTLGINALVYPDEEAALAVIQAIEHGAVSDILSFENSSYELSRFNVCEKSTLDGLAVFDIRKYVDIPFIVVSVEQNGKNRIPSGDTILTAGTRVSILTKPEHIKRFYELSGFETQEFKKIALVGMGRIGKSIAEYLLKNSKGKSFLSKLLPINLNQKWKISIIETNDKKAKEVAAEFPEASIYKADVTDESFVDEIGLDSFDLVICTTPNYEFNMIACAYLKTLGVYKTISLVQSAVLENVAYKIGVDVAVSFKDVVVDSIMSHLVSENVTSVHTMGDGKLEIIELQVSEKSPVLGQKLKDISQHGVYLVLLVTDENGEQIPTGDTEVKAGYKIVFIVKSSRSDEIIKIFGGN

Nc1ncnc2c1ncn2[C@@H]1O[C@H](COP(=O)(O)OP(=O)(O)OP(=O)(O)O)[C@@H](O)[C@H]1O [ATP]
RP-HPLC of reaction products (TDE1909 (CdaA)): we observed that CdaA converted ATP to c-di-AMP while CdaR did not

O=[N+]([O-])c1ccc(OP(=O)(O)Oc2ccc([N+](=O)[O-])cc2)cc1 [bis-pNPP]
absorbance at 405 nm (TDE0027 (DhhA)): TDE0027 hydrolyzed bis-pNPP but not pNPP

Nc1ncnc2c1ncn2[C@@H]1O[C@@H]2COP(=O)(O)O[C@H]3[C@@H](O)[C@H](n4cnc5c(N)ncnc54)O[C@@H]3COP(=O)(O)O[C@H]2[C@H]1O [c-di-AMP]
ELISA-type plate binding, immobilised protein, streptavidin-HRP (TDE0087 (TrkA)): TDE0087 bound c-di-AMP similarly to the CabP control | RP-HPLC of reaction products (TDE1909 (CdaA)): we observed that CdaA converted ATP to c-di-AMP while CdaR did not
